Data reported in publication PMC6042793 (PLoS ONE, 2018).

Test system: sialidase activity of A/Memphis/1/1971 (H3N2)
Assay type: biochemical, influenza A virus (H3N2)
Details: pH 6.5

With CC(=O)N[C@H]1[C@H]([C@H](O)[C@H](O)CO)OC(C(=O)O)=C[C@@H]1N=C(N)N [ZV, zanamivir] as the molecule, how does the “BTP3 fluorescence on the membrane in the presence of NAI” value (from here on “BTP3 fluorescence on the membrane”) read?
Its value is “not observed”.

Which “BTP3 fluorescence on the membrane” value does the source give for [H]/N=C(\N)N[C@H]1C=C(C(=O)O)O[C@@H]([C@H](OC)[C@H](O)CO)[C@@H]1NC(C)=O [LV, laninamivir] here?
Its value is “not observed”.

CCC(CC)[C@H](NC(C)=O)[C@@H]1[C@H](O)[C@@H](C(=O)O)C[C@H]1N=C(N)N [PV, peramivir] was tested. Which “BTP3 fluorescence on the membrane” value did it give?
The value was “not observed”.

For CCOC(=O)C1=C[C@@H](OC(CC)CC)[C@H](NC(C)=O)[C@@H](N)C1 [OV, oseltamivir], which “BTP3 fluorescence on the membrane” value is on record?
The value was “not observed”.

Test system: sialidase activity of A/Shizuoka/17/2016 (H1N1pdm)
Assay type: biochemical, influenza A virus (H1N1pdm)
Details: pH 6.5

CC(=O)N[C@H]1[C@H]([C@H](O)[C@H](O)CO)OC(C(=O)O)=C[C@@H]1N=C(N)N [ZV, zanamivir] was tested. Which “BTP3 fluorescence on the membrane” value did it give?
The value was “not observed”.

With [H]/N=C(\N)N[C@H]1C=C(C(=O)O)O[C@@H]([C@H](OC)[C@H](O)CO)[C@@H]1NC(C)=O [LV, laninamivir] as the molecule, how does the “BTP3 fluorescence on the membrane” value read?
The value was “not observed”.

CCC(CC)[C@H](NC(C)=O)[C@@H]1[C@H](O)[C@@H](C(=O)O)C[C@H]1N=C(N)N [PV, peramivir] was tested. Which “BTP3 fluorescence on the membrane” value did it give?
Its value is “not observed”.

CCOC(=O)C1=C[C@@H](OC(CC)CC)[C@H](NC(C)=O)[C@@H](N)C1 [OV, oseltamivir] was tested. Which “BTP3 fluorescence on the membrane” value did it give?
The value was “not observed”.

Molecular target: sialidase activity of B/Lee/1940 (Influenza B virus, UniProt P03474)
Assay type: biochemical
Details: pH 6.5

Sequence of sialidase activity of B/Lee/1940 (P03474 whole entry): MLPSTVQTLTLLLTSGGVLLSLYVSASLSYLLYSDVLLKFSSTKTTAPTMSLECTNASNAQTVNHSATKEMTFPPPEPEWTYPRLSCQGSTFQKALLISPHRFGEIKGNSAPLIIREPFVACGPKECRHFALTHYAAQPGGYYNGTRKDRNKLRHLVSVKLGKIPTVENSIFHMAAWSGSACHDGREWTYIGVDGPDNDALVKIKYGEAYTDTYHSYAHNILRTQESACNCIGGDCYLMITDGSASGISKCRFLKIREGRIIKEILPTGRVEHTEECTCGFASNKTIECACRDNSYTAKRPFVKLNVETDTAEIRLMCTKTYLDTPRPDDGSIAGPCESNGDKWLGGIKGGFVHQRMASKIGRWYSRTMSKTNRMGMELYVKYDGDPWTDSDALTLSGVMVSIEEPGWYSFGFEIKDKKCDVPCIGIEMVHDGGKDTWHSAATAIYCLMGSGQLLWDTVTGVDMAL

For [H]/N=C(\N)N[C@H]1C=C(C(=O)O)O[C@@H]([C@H](OC)[C@H](O)CO)[C@@H]1NC(C)=O [LV, laninamivir], which “BTP3 fluorescence on the membrane” value is on record?
Its value is “not observed”.

How did the “BTP3 fluorescence on the membrane” value turn out when CCC(CC)[C@H](NC(C)=O)[C@@H]1[C@H](O)[C@@H](C(=O)O)C[C@H]1N=C(N)N [PV, peramivir] was run?
Its value is “not observed”.

With CCOC(=O)C1=C[C@@H](OC(CC)CC)[C@H](NC(C)=O)[C@@H](N)C1 [OV, oseltamivir] as the molecule, how does the “BTP3 fluorescence on the membrane” value read?
The value was “not observed”.

Molecular target: sialidase activity of A/Puerto Rico/8/1934 (H1N1) (Influenza A virus, UniProt P03468)
Assay type: biochemical
Details: pH 6.5

Sequence of sialidase activity of A/Puerto Rico/8/1934 (H1N1) (P03468 whole entry, looked up): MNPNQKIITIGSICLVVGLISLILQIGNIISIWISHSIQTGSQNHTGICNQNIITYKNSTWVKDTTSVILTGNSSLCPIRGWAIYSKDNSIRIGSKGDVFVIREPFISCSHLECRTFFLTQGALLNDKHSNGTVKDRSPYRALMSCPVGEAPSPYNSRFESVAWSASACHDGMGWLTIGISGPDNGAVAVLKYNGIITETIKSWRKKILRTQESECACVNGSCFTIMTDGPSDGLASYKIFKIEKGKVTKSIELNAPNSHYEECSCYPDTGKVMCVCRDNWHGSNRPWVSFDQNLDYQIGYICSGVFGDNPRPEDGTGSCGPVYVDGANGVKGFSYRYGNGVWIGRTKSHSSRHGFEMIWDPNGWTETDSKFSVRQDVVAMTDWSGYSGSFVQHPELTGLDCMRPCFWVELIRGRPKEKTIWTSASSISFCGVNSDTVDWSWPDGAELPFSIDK

[H]/N=C(\N)N[C@H]1C=C(C(=O)O)O[C@@H]([C@H](OC)[C@H](O)CO)[C@@H]1NC(C)=O [LV, laninamivir] was tested. Which “BTP3 fluorescence on the membrane” value did it give?
Its value is “not observed”.

CCC(CC)[C@H](NC(C)=O)[C@@H]1[C@H](O)[C@@H](C(=O)O)C[C@H]1N=C(N)N [PV, peramivir] was tested. Which “BTP3 fluorescence on the membrane” value did it give?
Its value is “not observed”.

CCOC(=O)C1=C[C@@H](OC(CC)CC)[C@H](NC(C)=O)[C@@H](N)C1 [OV, oseltamivir] was tested. Which “BTP3 fluorescence on the membrane” value did it give?
The value was “not observed”.

Molecular target: S. pneumoniae sialidase activity (Streptococcus pneumoniae, UniProt P62575)
Assay type: biochemical
Set-up: key to Test result in the BTP3-based filter method in the presence of NAI: -, not detected
Details: not given

Sequence of S. pneumoniae sialidase activity (P62575 54-1035): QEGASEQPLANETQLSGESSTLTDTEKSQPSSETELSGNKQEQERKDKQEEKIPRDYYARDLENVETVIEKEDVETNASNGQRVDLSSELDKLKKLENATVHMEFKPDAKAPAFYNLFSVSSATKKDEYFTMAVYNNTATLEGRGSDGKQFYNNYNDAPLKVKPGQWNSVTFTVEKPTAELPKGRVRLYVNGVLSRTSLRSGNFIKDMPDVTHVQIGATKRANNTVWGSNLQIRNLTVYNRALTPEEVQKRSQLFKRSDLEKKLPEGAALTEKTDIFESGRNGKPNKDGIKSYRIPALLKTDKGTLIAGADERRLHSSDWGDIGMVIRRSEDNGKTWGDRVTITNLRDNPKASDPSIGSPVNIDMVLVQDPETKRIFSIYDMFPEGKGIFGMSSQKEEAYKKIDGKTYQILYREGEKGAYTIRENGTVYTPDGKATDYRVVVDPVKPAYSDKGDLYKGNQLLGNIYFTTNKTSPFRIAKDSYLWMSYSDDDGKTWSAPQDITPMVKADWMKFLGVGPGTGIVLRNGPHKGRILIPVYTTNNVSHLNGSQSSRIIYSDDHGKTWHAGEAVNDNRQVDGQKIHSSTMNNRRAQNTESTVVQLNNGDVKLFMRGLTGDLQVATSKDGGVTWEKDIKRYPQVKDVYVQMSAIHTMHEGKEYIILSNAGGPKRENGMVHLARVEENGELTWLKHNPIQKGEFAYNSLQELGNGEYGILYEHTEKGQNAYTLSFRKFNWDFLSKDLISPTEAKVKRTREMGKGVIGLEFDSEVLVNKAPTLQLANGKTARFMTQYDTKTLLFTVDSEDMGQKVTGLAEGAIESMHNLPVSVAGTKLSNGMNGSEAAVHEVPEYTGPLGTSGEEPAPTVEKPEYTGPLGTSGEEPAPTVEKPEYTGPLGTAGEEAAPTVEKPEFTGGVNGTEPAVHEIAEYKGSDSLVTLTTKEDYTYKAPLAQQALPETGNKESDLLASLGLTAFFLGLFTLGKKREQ

For CC(=O)N[C@H]1[C@H]([C@H](O)[C@H](O)CO)OC(C(=O)O)=C[C@@H]1N=C(N)N [ZV, zanamivir], which “Test result in the BTP3-based filter method in the presence of NAI” value (“Test result” below) is on record?
The value was “Positive”.

[H]/N=C(\N)N[C@H]1C=C(C(=O)O)O[C@@H]([C@H](OC)[C@H](O)CO)[C@@H]1NC(C)=O [LV, laninamivir] was tested. Which “Test result” value did it give?
The value was “Positive”.

Which “Test result” value does the source give for CCC(CC)[C@H](NC(C)=O)[C@@H]1[C@H](O)[C@@H](C(=O)O)C[C@H]1N=C(N)N [PV, peramivir] here?
Its value is “Positive”.

CCOC(=O)C1=C[C@@H](OC(CC)CC)[C@H](NC(C)=O)[C@@H](N)C1 [OV, oseltamivir] was tested. Which “Test result” value did it give?
The value was “-”.

Same assay, conditions: pH 6.5, 56°C 15 min

CC(=O)N[C@H]1[C@H]([C@H](O)[C@H](O)CO)OC(C(=O)O)=C[C@@H]1N=C(N)N [ZV, zanamivir] was tested. Which “NAI susceptibility in the BTP3-based filter method (fluorescence in the presence of NAI)” value (“NAI susceptibility” for short) did it give?
Its value is “showed fluorescence”.

[H]/N=C(\N)N[C@H]1C=C(C(=O)O)O[C@@H]([C@H](OC)[C@H](O)CO)[C@@H]1NC(C)=O [LV, laninamivir] was tested. Which “NAI susceptibility” value did it give?
Its value is “showed fluorescence”.

Which “NAI susceptibility” value does the source give for CCC(CC)[C@H](NC(C)=O)[C@@H]1[C@H](O)[C@@H](C(=O)O)C[C@H]1N=C(N)N [PV, peramivir] here?
The value was “showed fluorescence”.

How did the “NAI susceptibility” value turn out when CCOC(=O)C1=C[C@@H](OC(CC)CC)[C@H](NC(C)=O)[C@@H](N)C1 [OV, oseltamivir] was run?
The value was “susceptible”.

Test system: sialidase activity of A/Shizuoka/19/2016 (H1N1pdm)
Assay type: biochemical, influenza A virus (H1N1pdm)
Details: pH 6.5

CC(=O)N[C@H]1[C@H]([C@H](O)[C@H](O)CO)OC(C(=O)O)=C[C@@H]1N=C(N)N [ZV, zanamivir] was tested. Which “BTP3 fluorescence on the membrane” value did it give?
The value was “not observed”.

Which “BTP3 fluorescence on the membrane” value does the source give for [H]/N=C(\N)N[C@H]1C=C(C(=O)O)O[C@@H]([C@H](OC)[C@H](O)CO)[C@@H]1NC(C)=O [LV, laninamivir] here?
Its value is “not observed”.

For CCC(CC)[C@H](NC(C)=O)[C@@H]1[C@H](O)[C@@H](C(=O)O)C[C@H]1N=C(N)N [PV, peramivir], which “BTP3 fluorescence on the membrane” value is on record?
Its value is “not observed”.

Which “BTP3 fluorescence on the membrane” value does the source give for CCOC(=O)C1=C[C@@H](OC(CC)CC)[C@H](NC(C)=O)[C@@H](N)C1 [OV, oseltamivir] here?
The value was “not observed”.

Molecular target: MuV sialidase activity (Mumps virus genotype B, UniProt P11235)
Assay type: biochemical
Details: not given

Sequence of MuV sialidase activity (P11235 whole entry): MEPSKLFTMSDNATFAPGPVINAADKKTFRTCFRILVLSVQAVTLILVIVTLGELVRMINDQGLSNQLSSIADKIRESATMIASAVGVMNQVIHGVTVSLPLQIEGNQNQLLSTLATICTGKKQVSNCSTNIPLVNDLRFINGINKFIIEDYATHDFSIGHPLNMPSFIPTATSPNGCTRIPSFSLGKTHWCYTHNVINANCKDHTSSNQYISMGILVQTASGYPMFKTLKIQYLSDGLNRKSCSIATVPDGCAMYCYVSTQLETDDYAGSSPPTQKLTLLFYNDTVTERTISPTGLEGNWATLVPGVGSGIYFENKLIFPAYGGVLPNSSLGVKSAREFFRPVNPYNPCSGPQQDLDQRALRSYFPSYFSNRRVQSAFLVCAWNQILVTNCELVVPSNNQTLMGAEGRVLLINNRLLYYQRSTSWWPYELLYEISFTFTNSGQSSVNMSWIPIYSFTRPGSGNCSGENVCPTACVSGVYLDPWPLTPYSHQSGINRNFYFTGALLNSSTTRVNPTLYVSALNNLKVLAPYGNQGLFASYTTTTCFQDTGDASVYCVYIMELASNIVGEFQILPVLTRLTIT

For CC(=O)N[C@H]1[C@H]([C@H](O)[C@H](O)CO)OC(C(=O)O)=C[C@@H]1N=C(N)N [ZV, zanamivir], which “Test result” value is on record?
Its value is “Positive”.

Which “Test result” value does the source give for [H]/N=C(\N)N[C@H]1C=C(C(=O)O)O[C@@H]([C@H](OC)[C@H](O)CO)[C@@H]1NC(C)=O [LV, laninamivir] here?
Its value is “Positive”.

How did the “Test result” value turn out when CCC(CC)[C@H](NC(C)=O)[C@@H]1[C@H](O)[C@@H](C(=O)O)C[C@H]1N=C(N)N [PV, peramivir] was run?
Its value is “Positive”.

With CCOC(=O)C1=C[C@@H](OC(CC)CC)[C@H](NC(C)=O)[C@@H](N)C1 [OV, oseltamivir] as the molecule, how does the “Test result” value read?
Its value is “Positive”.
